Experimental data taken from ChEMBL document CHEMBL1629566, “Development and qualification of a pharmacodynamic model for the pronounced inoculum effect of ceftazidime against Pseudomonas aeruginosa” (2009).
≈ marks a conversion by molar mass, not a printed value.

Key:
Format in all cases: functional
Pseudomonas aeruginosa [1] = assay: Antimicrobial activity against Pseudomonas aeruginosa PAO1 infected in in vitro pharmacodynamic model assessed as bacterial killing at 4 mg/L after 8 hrs using 10^6 CFU/ml inoculum by time kill study
Pseudomonas aeruginosa [2] = assay: Antimicrobial activity against Pseudomonas aeruginosa PAO1 infected in in vitro pharmacodynamic model assessed as bacterial killing up to 64 mg/L after 48 hrs using 10^7 CFU/ml inoculum by time kill study
Pseudomonas aeruginosa [3] = assay: Antimicrobial activity against Pseudomonas aeruginosa PAO1 infected in in vitro pharmacodynamic model assessed as bacterial killing at 0 to 128 mg/L using 10^8 CFU/ml inoculum by time kill study
Pseudomonas aeruginosa [4] = assay: Antimicrobial activity against Pseudomonas aeruginosa PAO1
Pseudomonas aeruginosa [5] = assay: Antimicrobial activity against Pseudomonas aeruginosa PAO1 infected in in vitro pharmacodynamic model assessed as bacterial killing at 4 mg/L after 24 hrs using 10^6 CFU/ml inoculum by time kill study

CC(C)(O/N=C(\C(=O)N[C@@H]1C(=O)N2C(C(=O)[O-])=C(C[n+]3ccccc3)CS[C@H]12)c1csc(N)n1)C(=O)O [CEFTAZIDIME] was tested, and the log10cfu (Pseudomonas aeruginosa [1]) was 3, the log10cfu (Pseudomonas aeruginosa [2]) was 1.6 and the log10cfu (Pseudomonas aeruginosa [3]) was under 0.3. It also gave an MIC (Pseudomonas aeruginosa [4]) of 2 µg/mL (≈ 3.66 µM) and a log10cfu (Pseudomonas aeruginosa [5]) of 3.
